US9452986B2, “6-heteroaryloxy- or 6-aryloxy-quinoline-2-carboxamides and method of use” (AbbVie Inc., priority 2014, dated 2016)

target: recombinant human Nav1.7 (Homo sapiens (Human), UniProt Q15858); experiment: FRET-based membrane potential assay, recombinant human sodium channel Nav1.7; format: cell-based; settings: HEK293 cells stably expressing recombinant human Nav1.7; veratridine + scorpion venom depolarization; read-out: FRET-Membrane Potential Nav1.7 IC50
Procedure, shortened: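 Channel activation used veratridine at its EC80, set by a dilution curve each experiment, together with Leiurus scorpion venom, added 3 min after compound. Membrane-potential ratio signals from FLIPR Tetra in HEPES-buffered HBSS were fitted to a four-parameter Hill equation for percent inhibition and IC50.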

Chain of recombinant human Nav1.7 (Q15858 whole entry): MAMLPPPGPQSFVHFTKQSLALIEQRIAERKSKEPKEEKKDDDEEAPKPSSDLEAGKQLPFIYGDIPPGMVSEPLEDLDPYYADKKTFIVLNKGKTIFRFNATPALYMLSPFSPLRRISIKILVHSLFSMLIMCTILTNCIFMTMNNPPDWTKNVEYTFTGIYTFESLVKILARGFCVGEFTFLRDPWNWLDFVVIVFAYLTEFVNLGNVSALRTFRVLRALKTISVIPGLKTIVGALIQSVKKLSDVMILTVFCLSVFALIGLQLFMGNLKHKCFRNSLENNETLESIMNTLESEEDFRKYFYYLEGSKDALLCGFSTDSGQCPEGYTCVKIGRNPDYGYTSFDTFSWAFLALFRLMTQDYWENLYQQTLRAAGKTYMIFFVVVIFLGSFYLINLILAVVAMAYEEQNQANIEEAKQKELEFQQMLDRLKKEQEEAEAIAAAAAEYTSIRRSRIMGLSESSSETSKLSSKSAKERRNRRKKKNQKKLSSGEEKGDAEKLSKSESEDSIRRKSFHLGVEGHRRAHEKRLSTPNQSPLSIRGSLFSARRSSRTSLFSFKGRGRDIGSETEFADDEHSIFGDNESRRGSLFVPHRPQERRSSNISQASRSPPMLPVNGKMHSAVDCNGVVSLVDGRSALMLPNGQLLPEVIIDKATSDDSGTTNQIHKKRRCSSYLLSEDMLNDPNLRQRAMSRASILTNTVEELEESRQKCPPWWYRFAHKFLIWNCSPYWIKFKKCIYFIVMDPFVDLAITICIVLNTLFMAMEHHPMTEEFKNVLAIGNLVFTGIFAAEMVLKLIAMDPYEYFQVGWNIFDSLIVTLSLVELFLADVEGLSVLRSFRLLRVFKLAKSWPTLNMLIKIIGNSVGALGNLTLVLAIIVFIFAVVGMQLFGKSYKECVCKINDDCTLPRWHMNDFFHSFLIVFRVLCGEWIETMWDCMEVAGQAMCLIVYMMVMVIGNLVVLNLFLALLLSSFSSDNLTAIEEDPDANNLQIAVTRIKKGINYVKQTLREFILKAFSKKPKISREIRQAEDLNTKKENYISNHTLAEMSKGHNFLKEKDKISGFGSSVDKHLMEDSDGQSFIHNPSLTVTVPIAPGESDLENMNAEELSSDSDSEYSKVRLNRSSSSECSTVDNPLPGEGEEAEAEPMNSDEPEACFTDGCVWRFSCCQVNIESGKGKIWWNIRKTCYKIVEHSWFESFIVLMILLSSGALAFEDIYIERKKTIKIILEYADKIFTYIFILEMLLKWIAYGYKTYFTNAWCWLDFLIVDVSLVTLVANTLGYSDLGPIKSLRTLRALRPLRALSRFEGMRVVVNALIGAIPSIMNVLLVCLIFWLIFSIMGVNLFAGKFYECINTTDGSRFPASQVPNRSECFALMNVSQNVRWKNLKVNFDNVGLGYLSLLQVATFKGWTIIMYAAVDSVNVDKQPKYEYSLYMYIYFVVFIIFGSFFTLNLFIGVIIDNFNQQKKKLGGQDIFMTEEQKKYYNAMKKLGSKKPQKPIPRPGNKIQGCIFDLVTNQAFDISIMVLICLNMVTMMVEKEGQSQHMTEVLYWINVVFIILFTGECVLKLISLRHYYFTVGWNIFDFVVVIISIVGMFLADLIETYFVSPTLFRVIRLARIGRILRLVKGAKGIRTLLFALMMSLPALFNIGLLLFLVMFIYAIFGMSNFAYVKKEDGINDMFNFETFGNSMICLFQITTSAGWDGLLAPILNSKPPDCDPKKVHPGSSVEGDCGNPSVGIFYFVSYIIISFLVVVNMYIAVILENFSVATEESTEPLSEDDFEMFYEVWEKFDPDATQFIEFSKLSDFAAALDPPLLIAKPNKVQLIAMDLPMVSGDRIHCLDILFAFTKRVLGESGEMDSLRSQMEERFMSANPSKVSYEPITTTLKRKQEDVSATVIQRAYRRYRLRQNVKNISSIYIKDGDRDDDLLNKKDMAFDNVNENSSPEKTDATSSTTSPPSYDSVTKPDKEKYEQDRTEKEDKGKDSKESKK

`O=C(NCCN1CCNC1=O)c1ccc2cc(Oc3ccc(C(F)(F)F)cn3)ccc2n1` [Example 421, N-[2-(2-oxoimidazolidin-1-yl)ethyl]-6-{[5-(trifluoromethyl)pyridin-2-yl]oxy}quinoline-2-carboxamide] and `O=C(NCCn1ccnc1)c1ccc2cc(Oc3ccc(C(F)(F)F)cn3)ccc2n1` [Example 423, N-[2-(1H-imidazol-1-yl)ethyl]-6-{[5-(trifluoromethyl)pyridin-2-yl]oxy}quinoline-2-carboxamide] are within 1.5-fold of each other in IC50: 1060 nM for the first, 830 nM for the second.

Compared with `O=C(NCCNc1ccccn1)c1ccc2cc(Oc3ccc(C(F)(F)F)cn3)ccc2n1` [Example 422, N-[2-(pyridin-2-ylamino)ethyl]-6-{[5-(trifluoromethyl)pyridin-2-yl]oxy}quinoline-2-carboxamide], `O=C1CC(NC(=O)c2ccc3cc(Oc4ccc(C(F)(F)F)cn4)ccc3n2)C1` [Example 432, N-(3-oxocyclobutyl)-6-{[5-(trifluoromethyl)pyridin-2-yl]oxy}quinoline-2-carboxamide] is 4.7-fold higher in IC50: 617 nM for the first, 2870 nM for the second. The first is the more potent here.

Compared with `CC1(O)CC(NC(=O)c2ccc3cc(Oc4ccc(C(F)(F)F)cn4)ccc3n2)C1` (centres unmarked) [Example 426, N-(3-hydroxy-3-methylcyclobutyl)-6-{[5-(trifluoromethyl)pyridin-2-yl]oxy}quinoline-2-carboxamide], `CN1CC(NC(=O)c2ccc3cc(Oc4ccc(C(F)(F)F)cn4)ccc3n2)CC1=O` (centres unmarked) [Example 448, N-(1-methyl-5-oxopyrrolidin-3-yl)-6-{[5-(trifluoromethyl)pyridin-2-yl]oxy}quinoline-2-carboxamide] is 2.6-fold lower in IC50: 972 nM for the first, 371 nM for the second. The second is the more potent here.

First: COCCOC1CN(C(=O)c2ccc3cc(Oc4ccc(C(F)(F)F)cn4)ccc3n2)C1 [Example 427, [3-(2-methoxyethoxy)azetidin-1-yl](6-{[5-(trifluoromethyl)pyridin-2-yl]oxy}quinolin-2-yl)methanone]
Second: CS(=O)(=O)NC1CN(C(=O)c2ccc3cc(Oc4ccc(C(F)(F)F)cn4)ccc3n2)C1 [Example 428, N-{1-[(6-{[5-(trifluoromethyl)pyridin-2-yl]oxy}quinolin-2-yl)carbonyl]azetidin-3-yl}methanesulfonamide]
The IC50 of the first is higher: > 20000 nM for the first, 10300 nM for the second.

Going from `O=C(NC1CC(N2CCOCC2)C1)c1ccc2cc(Oc3ccc(C(F)(F)F)cn3)ccc2n1` (centres unmarked) [Example 433, N-[3-(morpholin-4-yl)cyclobutyl]-6-{[5-(trifluoromethyl)pyridin-2-yl]oxy}quinoline-2-carboxamide] to `O=C(NCC(=O)N1CCOCC1)c1ccc2cc(Oc3ccc(C(F)(F)F)cn3)ccc2n1` [Example 443, N-[2-(morpholin-4-yl)-2-oxoethyl]-6-{[5-(trifluoromethyl)pyridin-2-yl]oxy}quinoline-2-carboxamide], the IC50 rises from 442 nM to 703 nM (1.6-fold).

Compared with `CC(C)(O)CNC(=O)c1ccc2cc(Oc3ccc(C(F)F)cn3)ccc2n1` [Example 434, 6-{[5-(difluoromethyl)pyridin-2-yl]oxy}-N-(2-hydroxy-2-methylpropyl)quinoline-2-carboxamide], `O=C(NC1CCC(F)(F)CC1)c1ccc2cc(Oc3ccc(C(F)F)cn3)ccc2n1` [Example 437, N-(4,4-difluorocyclohexyl)-6-{[5-(difluoromethyl)pyridin-2-yl]oxy}quinoline-2-carboxamide] is 1.8-fold lower in IC50: 5580 nM for the first, 3170 nM for the second.

First: O=C(N[C@@H]1CCN(C(=O)c2ccc3cc(Oc4ccc(C(F)(F)F)cn4)ccc3n2)C1)C1CC1 [Example 439, N-{(3R)-1-[(6-{[5-(trifluoromethyl)pyridin-2-yl]oxy}quinolin-2-yl)carbonyl]pyrrolidin-3-yl}cyclopropanecarboxamide]
Second: O=C(NCC(=O)N1CCCCC1)c1ccc2cc(Oc3ccc(C(F)(F)F)cn3)ccc2n1 [Example 447, N-[2-oxo-2-(piperidin-1-yl)ethyl]-6-{[5-(trifluoromethyl)pyridin-2-yl]oxy}quinoline-2-carboxamide]
The IC50 of the first is 8.5-fold higher: 5860 nM for the first, 690 nM for the second. The second is the more potent here.

Compared with `O=C(c1ccc2cc(Oc3ccc(C(F)F)cn3)ccc2n1)N1CCN[C@@H](CO)C1` [Example 440, (6-{[5-(difluoromethyl)pyridin-2-yl]oxy}quinolin-2-yl) [(3R)-3-(hydroxymethyl)piperazin-1-yl]methanone], `O=C(NCCC(=O)N1CCOCC1)c1ccc2cc(Oc3ccc(C(F)(F)F)cn3)ccc2n1` [Example 444, N-[3-(morpholin-4-yl)-3-oxopropyl]-6-{[5-(trifluoromethyl)pyridin-2-yl]oxy}quinoline-2-carboxamide] is 9-fold lower in IC50: 12600 nM for the first, 1400 nM for the second.

First: COCCNC(=O)CN(C)C(=O)c1ccc2cc(Oc3ccc(C(F)(F)F)cn3)ccc2n1 [Example 442, N-{2-[(2-methoxyethyl)amino]-2-oxoethyl}-N-methyl-6-{[5-(trifluoromethyl)pyridin-2-yl]oxy}quinoline-2-carboxamide]
Second: O=C(NCCC(=O)N1CCCC1)c1ccc2cc(Oc3ccc(C(F)(F)F)cn3)ccc2n1 [Example 445, N-[3-oxo-3-(pyrrolidin-1-yl)propyl]-6-{[5-(trifluoromethyl)pyridin-2-yl]oxy}quinoline-2-carboxamide]
The IC50 of the first is 21-fold higher: 5520 nM for the first, 268 nM for the second.

same assay, conditions: read-out: FRET-Membrane Potential Nav1.7 IC50

In order of falling IC50:
1. O=C(c1ccc2cc(Oc3ccc(C(F)F)cn3)ccc2n1)N1CC(N2CCOCC2)C1 [Example 429, (6-{[5-(difluoromethyl)pyridin-2-yl]oxy}quinolin-2-yl) [3-(morpholin-4-yl)azetidin-1-yl]methanone]  13800 nM
2. O=C(c1ccc2cc(Oc3ccc(C(F)F)cn3)ccc2n1)N1CCC(N2CCOCC2)CC1 [Example 435, (6-{[5-(difluoromethyl)pyridin-2-yl]oxy}quinolin-2-yl)[4-(morpholin-4-yl)piperidin-1-yl]methanone]  12600 nM
3. CC(=O)N[C@@H]1CCN(C(=O)c2ccc3cc(Oc4ccc(C(F)(F)F)cn4)ccc3n2)C1 [Example 438, N-{(3R)-1-[(6-{[5-(trifluoromethyl)pyridin-2-yl]oxy}quinolin-2-yl)carbonyl]pyrrolidin-3-yl}acetamide]  12500 nM
4. O=C(N[C@H]1CS(=O)(=O)C[C@@H]1O)c1ccc2cc(Oc3ccc(C(F)(F)F)cn3)ccc2n1 [Example 425, N-[(3R,4R)-4-hydroxy-1,1-dioxidotetrahydrothiophen-3-yl]-6-{[5-(trifluoromethyl)pyridin-2-yl]oxy}quinoline-2-carboxamide]  9090 nM
5. O=C(c1ccc2cc(Oc3ccc(C(F)F)cn3)ccc2n1)N1CCNCC1C(F)F (centres unmarked) [Example 430, [2-(difluoromethyl)piperazin-1-yl](6-{[5-(difluoromethyl)pyridin-2-yl]oxy}quinolin-2-yl)methanone]  3450 nM
6. O=C(NCC1CCN1)c1ccc2cc(Oc3ccc(C(F)(F)F)cn3)ccc2n1 (centres unmarked) [Example 424, N-(azetidin-2-ylmethyl)-6-{[5-(trifluoromethyl)pyridin-2-yl]oxy}quinoline-2-carboxamide]  1310 nM
7. O=C(NCCC(=O)N1CCCCC1)c1ccc2cc(Oc3ccc(C(F)(F)F)cn3)ccc2n1 [Example 449, N-[3-oxo-3-(piperidin-1-yl)propyl]-6-{[5-(trifluoromethyl)pyridin-2-yl]oxy}quinoline-2-carboxamide]  789 nM
8. CCN(CC)C(=O)CNC(=O)c1ccc2cc(Oc3ccc(C(F)(F)F)cn3)ccc2n1 [Example 446, N-[2-(diethylamino)-2-oxoethyl]-6-{[5-(trifluoromethyl)pyridin-2-yl]oxy}quinoline-2-carboxamide]  166 nM
